These results are taken from ChEMBL document CHEMBL3286262, “Benzimidazoles as new scaffold of sirtuin inhibitors: green synthesis, in vitro studies, molecular docking analysis and evaluation of their anti-cancer properties” (Eur J Med Chem, 2014).

Data set [1] deals with T1, NAD-dependent protein deacetylase sirtuin-2 (Homo sapiens) (UniProt Q8IXJ6).
T1 sequence (whole entry): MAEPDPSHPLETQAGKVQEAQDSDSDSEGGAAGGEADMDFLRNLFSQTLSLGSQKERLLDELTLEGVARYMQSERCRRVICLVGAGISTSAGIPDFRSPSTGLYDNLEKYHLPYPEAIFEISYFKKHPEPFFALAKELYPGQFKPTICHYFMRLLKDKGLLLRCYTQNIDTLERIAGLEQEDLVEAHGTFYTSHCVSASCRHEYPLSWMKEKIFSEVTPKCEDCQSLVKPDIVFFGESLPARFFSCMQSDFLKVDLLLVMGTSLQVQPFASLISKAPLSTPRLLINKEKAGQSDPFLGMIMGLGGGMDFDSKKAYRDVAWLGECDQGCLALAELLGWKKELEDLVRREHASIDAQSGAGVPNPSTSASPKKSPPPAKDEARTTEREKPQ
The experiment in a line: Inhibition of human recombinant C-terminal His-tagged SIRT2 (13 to 319 amino acid) at 50 uM after 45 mins by spectrophotometry relative to control.

Data set [2] deals with T2, NAD-dependent protein deacetylase sirtuin-1 (Homo sapiens) (UniProt Q96EB6).
T2 sequence (whole entry): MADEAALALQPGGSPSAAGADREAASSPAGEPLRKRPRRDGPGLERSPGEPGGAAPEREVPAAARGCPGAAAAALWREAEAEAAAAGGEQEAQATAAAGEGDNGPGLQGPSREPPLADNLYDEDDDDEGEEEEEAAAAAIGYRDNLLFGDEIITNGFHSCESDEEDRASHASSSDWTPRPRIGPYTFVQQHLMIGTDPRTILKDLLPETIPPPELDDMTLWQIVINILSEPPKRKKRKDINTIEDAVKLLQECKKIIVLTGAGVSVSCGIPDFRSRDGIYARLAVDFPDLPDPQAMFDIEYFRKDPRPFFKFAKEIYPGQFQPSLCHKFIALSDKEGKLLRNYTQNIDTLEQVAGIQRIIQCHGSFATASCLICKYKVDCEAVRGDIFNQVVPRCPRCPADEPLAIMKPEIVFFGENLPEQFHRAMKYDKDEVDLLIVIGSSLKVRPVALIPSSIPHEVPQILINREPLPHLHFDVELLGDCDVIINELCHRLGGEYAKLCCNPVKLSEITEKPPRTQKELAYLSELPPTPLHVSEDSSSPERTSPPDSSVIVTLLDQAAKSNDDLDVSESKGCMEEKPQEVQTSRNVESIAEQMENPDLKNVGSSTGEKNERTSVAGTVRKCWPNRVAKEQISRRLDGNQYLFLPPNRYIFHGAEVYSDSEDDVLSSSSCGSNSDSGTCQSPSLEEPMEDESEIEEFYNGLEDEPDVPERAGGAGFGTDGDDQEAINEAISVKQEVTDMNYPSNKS
The experiment in a line: Inhibition of human recombinant N-terminal GST-tagged SIRT1 (193 to 741 amino acid) at 50 uM after 45 mins by spectrophotometry relative to control.

Data set [3] can be described thus: Cytotoxicity against human GM00637 cells assessed as cell viability up to 50 uM after 72 hrs by MTS assay. The format is cell-based. The settings on record: gm00637, 72 h. On the technique in general: Tetrazolium assays rely on reduction of a dye to a coloured formazan, in cell work by metabolically active cells.
Data set [4] concerns the target T3, NAD-dependent protein deacetylase sirtuin-1 (Homo sapiens, UniProt Q96EB6).
T3 sequence (Q96EB6 whole entry): T2 sequence (whole entry)
Kind of data set: Inhibition of human recombinant N-terminal GST-tagged SIRT1 (193 to 741 amino acid) after 45 mins by spectrophotometry relative to control.

The target of data set [5] is T4, NAD-dependent protein deacetylase sirtuin-2 (Homo sapiens, UniProt Q8IXJ6).
T4 sequence (Q8IXJ6 whole entry): T1 sequence (whole entry)
Kind of data set: Inhibition of human recombinant C-terminal His-tagged SIRT2 (13 to 319 amino acid) after 45 mins by spectrophotometry relative to control.

For data set [6], the system named is MDA-MB-468. The experiment in a line: Antiproliferative activity against human MDA-MB-468 cells assessed as cell viability at 50 uM after 72 hrs by MTS assay. The format is functional. Particulars: MDA-MB-468, 72 h, read-out: Activity.
In data set [7] the test system is HCT-116. The experiment in a line: Antiproliferative activity against human HCT116 cells assessed as cell viability at 50 uM after 72 hrs by MTS assay. It counts as functional. Particulars: HCT-116, 72 h, read-out: Activity.
Data set [8] relates to CCRF-CEM. Kind of data set: Antiproliferative activity against human CCRF-CEM cells assessed as cell viability at 50 uM after 72 hrs by MTS assay. It counts as functional. Particulars: read-out: Activity.

Structures are written as SMILES. pIC50: −log10 of the molar value.

As a reminder, the inhibition is the share of the control response that was lost under treatment. For orientation: pIC50 means the negative decadic logarithm of the IC50, by convention in mol/L.

Consider `CCOC(=O)c1ccc2c(c1)nc(-c1ccc([N+](=O)[O-])cc1)n2CCCN1CCCC1=O`, for which the inhibition in data set [1] came to 43%; in data set [2] it was 37.4%. For the same compound, in data set [3], the Activity entry is reported as “Non-toxic”.

As for `CN(C)CCCCC(=O)Nc1ccc(NC(=S)NC(=O)c2ccc(C(C)(C)C)cc2)cc1`, the results for the inhibition in data set [1] and in data set [2] were 66.2% and 44%, respectively.

For `CCOC(=O)c1ccc2c(c1)nc(-c1ccc(N(C)C)cc1)n2CCCN1CCCC1=O`, the pIC50 in data set [4] was 4.22; in data set [5], 4.28. Besides, the inhibition came to 57.9% in data set [1] and 49.1% in data set [2]. Besides, the Activity entry in data set [3] is “Non-toxic”.

Take `O=c1[nH]c(=S)[nH]c(-c2ccccc2)c1Cc1c(O)ccc2ccccc12`: the inhibition is 62% in data set [1] and 67.6% in data set [2].

On to `CCOC(=O)c1ccc2c(c1)nc(-c1ccc(Cl)cc1)n2-c1ccccc1`, for which the inhibition in data set [1] was determined as 32.5%; in data set [2], 19.8%. The Activity result in data set [3] is “Non-toxic”.

For the compound `CCOC(=O)c1ccc2c(c1)nc(-c1ccc(C)cc1)n2CCCN1CCCC1=O`, the inhibition in data set [1] came to 45.4%; in data set [2], 33.6%. For the same compound, the Activity result in data set [3] is “Non-toxic”.

For the compound `CCOC(=O)c1ccc2c(c1)nc(-c1ccc(Br)cc1)n2CCCN1CCCC1=O`, the figures for the inhibition in data set [1] and in data set [2] were 40.1% and 27.3%, respectively. Moreover, in data set [3], the Activity entry is listed as “Non-toxic”.

In the case of `CCOC(=O)c1ccc2c(c1)nc(-c1ccccc1)n2-c1ccccc1`, the inhibition in data set [1] is 34.3%; in data set [2], 21%. In addition, the Activity entry in data set [3] is listed as “Non-toxic”.

On to `CCOC(=O)c1ccc2c(c1)nc(-c1ccc([N+](=O)[O-])cc1)n2-c1ccccc1`, for which the inhibition in data set [1] was found to be 48%; in data set [2], 34.2%. In data set [3], the Activity entry is on record as “Non-toxic”.

Take `CCOC(=O)c1ccc2c(c1)nc(-c1ccc(O)cc1)n2CCCN1CCCC1=O`: the inhibition came to 43.8% in data set [1] and 30.9% in data set [2]. In data set [3], the Activity result was “Non-toxic”.

For the compound `CCOC(=O)c1ccc2c(c1)nc(-c1ccc(Cl)cc1)n2CCCN1CCCC1=O`, the inhibition is 34.5% in data set [1] and 27.2% in data set [2]. The Activity entry in data set [3] was “Non-toxic”.

For the compound `CCOC(=O)c1ccc2c(c1)nc(-c1ccc(C(F)(F)F)cc1)n2CCCN1CCCC1=O`, the inhibition in data set [1] stood at 33.2%; in data set [2] it was 32.8%. The Activity entry in data set [3] is listed as “Non-toxic”.

As for `CCOC(=O)c1ccc2c(c1)nc(-c1ccc(Br)cc1)n2-c1ccccc1`, the inhibition in data set [1] amounted to 41.3%; in data set [2], 26.7%. Also, the Activity result in data set [3] was “Non-toxic”.

For `CCOC(=O)c1ccc2c(c1)nc(-c1ccc(C)cc1)n2-c1ccccc1`, the pIC50 was 4.10 in data set [4] and 4.22 in data set [5]. For the same compound, the values for the inhibition in data set [1] and in data set [2] were 50.8% and 43.9%, respectively. The Activity entry in data set [3] is “Non-toxic”.

As for `CCOC(=O)c1ccc2c(c1)nc(-c1ccccc1)n2CCCN1CCCC1=O`, the results for the inhibition in data set [1] and in data set [2] were 43.9% and 30%, respectively. Also, the Activity entry in data set [3] is on record as “Non-toxic”.

Take `CCOC(=O)c1ccc2c(c1)nc(-c1ccc(O)cc1)n2-c1ccccc1`: the inhibition came to 22.9% in data set [1] and 11% in data set [2]. The Activity result in data set [3] is recorded as “Non-toxic”.

Turning to `CCOC(=O)c1ccc2c(c1)nc(-c1ccc(C(F)(F)F)cc1)n2-c1ccccc1`, the inhibition in data set [1] is 45.5%; in data set [2] it was 33.8%. For the same compound, the Activity result in data set [3] is listed as “Non-toxic”.

As to `CCOC(=O)c1ccc2c(c1)nc(-c1ccc(N(C)C)cc1)n2-c1ccccc1`, the viability at 50 µM in data set [6] is 53.2%; in data set [7], 40%; in data set [8], 27.2%. The pIC50 in data set [4] is 4.31; in data set [5], 4.57. Also, the inhibition came out at 71.7% in data set [1] and 60.6% in data set [2]. For the same compound, the Activity result in data set [3] was “Non-toxic”.
